Data set [1] has as its system Haemophilus influenzae. In words: Antibacterial activity against Haemophilus influenzae ATCC 49766 by standard serial agar dilution method. Format: functional. (In general: Agar dilution tests growth on a series of plates holding different concentrations.)
In data set [2] the test system is Pseudomonas aeruginosa. In words: Antibacterial activity against Pseudomonas aeruginosa SR-5393 by standard serial agar dilution method. The class given is functional.
The next data set concerns Moraxella catarrhalis. In words: Antibacterial activity against Moraxella catarrhalis ATCC 43617 by standard serial agar dilution method. Format: functional.
In another data set the test system is Staphylococcus aureus. In words: Antibacterial activity against Staphylococcus aureus Smith by standard serial agar dilution method. The class given is functional.
In data set [3] the test system is Pseudomonas aeruginosa. In words: Antibacterial activity against Pseudomonas aeruginosa SR24 by standard serial agar dilution method. Format: functional.
Data set [4] has as its system Escherichia coli. In words: Antibacterial activity against Toho 2 producing Escherichia coli by standard serial agar dilution method. Format: functional.
Data set [5] concerns Pseudomonas aeruginosa. In words: Antibacterial activity against AmpC hyperproducing Pseudomonas aeruginosa SR24-12 by standard serial agar dilution method. The class given is functional.
Data set [6] has as its system Pseudomonas aeruginosa. In words: Antibacterial activity against imipenem-resistant Pseudomonas aeruginosa SR-6554 by standard serial agar dilution method. The class given is functional.
In data set [7] the test system is Enterobacter cloacae. In words: Antibacterial activity against Enterobacter cloacae ATCC 13047 by standard serial agar dilution method. The class given is functional.
The subject of the next data set is Streptococcus pneumoniae. In words: Antibacterial activity against penicillin-resistant Streptococcus pneumoniae SR-16675 by standard serial agar dilution method. Format: functional.
Data set [8] has as its system Haemophilus influenzae. In words: Antibacterial activity against beta-lactamase negative ampicillin-resistant Haemophilus influenzae SR-11435 by standard serial agar dilution method. The class given is functional.
In data set [9] the test system is Escherichia coli. In words: Antibacterial activity against Escherichia coli SR-21003 by standard serial agar dilution method. The class given is functional.
Data set [10] has as its system Enterobacter cloacae. Kind of data set: Antibacterial activity against AmpC producing Enterobacter cloacae SR-4321 by standard serial agar dilution method. The class given is functional.
Data set [11] concerns Pseudomonas aeruginosa. Kind of data set: Antibacterial activity against Pseudomonas aeruginosa SR-24797 isolate by standard serial agar dilution method. The class given is functional.
For data set [12], the system named is Pseudomonas aeruginosa. Kind of data set: Antibacterial activity against Pseudomonas aeruginosa SR-24816 isolate by standard serial agar dilution method. The class given is functional.
The nature of data set [13]: Stability in presence of AmpC beta-lactamase. The class given is ADME.
The subject of data set [14] is Pseudomonas aeruginosa. In words: Antibacterial activity against Pseudomonas aeruginosa SR-24765 isolate by standard serial agar dilution method. Format: functional.
Data set [15] concerns Pseudomonas aeruginosa. In words: Antibacterial activity against Pseudomonas aeruginosa SR-24736 isolate by standard serial agar dilution method. Format: functional.
Data set [16] concerns Pseudomonas aeruginosa. Kind of data set: Antibacterial activity against Pseudomonas aeruginosa SR-24722 isolate by standard serial agar dilution method. The class given is functional.
The test system of data set [17] is Pseudomonas aeruginosa. In words: Antibacterial activity against Pseudomonas aeruginosa SR-24770 isolate by standard serial agar dilution method. Format: functional.
Data set [18] concerns Pseudomonas aeruginosa. Kind of data set: Antibacterial activity in CAZ-susceptible Pseudomonas aeruginosa SR24 infected ICR mouse after 7 days. Format: functional. The note with it: 168 h.
The subject of data set [19] is Pseudomonas aeruginosa. Kind of data set: Antibacterial activity in CAZ-resistant Pseudomonas aeruginosa SR24-12 infected ICR mouse after 7 days. The note with it: 168 h. Format: functional.

We go through six compounds from ChEMBL document CHEMBL1144019 (Bioorg Med Chem, 2008).

The ED50 is the dose at which the effect has come halfway, by size or by number of responders.

≈ marks a conversion by molar mass, not a printed value.

`C[C@H](O/N=C(\C(=O)N[C@@H]1C(=O)N2C(C(=O)[O-])=C(C[n+]3cccc4c3ccn4CC(N)=O)CS[C@H]12)c1nc(N)sc1Cl)C(=O)O`: the MIC against Haemophilus influenzae [1] amounted to 0.032 µg/mL (≈ 0.0483 µM); in the data set on Pseudomonas aeruginosa [2], 4 µg/mL (≈ 6.03 µM); against Moraxella catarrhalis it was 0.016 µg/mL (≈ 0.0241 µM); against Staphylococcus aureus, 2 µg/mL (≈ 3.02 µM); against Pseudomonas aeruginosa [3] it was 1 µg/mL (≈ 1.51 µM); against Escherichia coli [4], 2 µg/mL (≈ 3.02 µM). The MIC in the data set on Pseudomonas aeruginosa [5] came to 4 µg/mL (≈ 6.03 µM); in the data set on Pseudomonas aeruginosa [6], 16 µg/mL (≈ 24.1 µM); in the data set with Enterobacter cloacae [7], 0.5 µg/mL (≈ 0.754 µM); in the data set with Streptococcus pneumoniae, 2 µg/mL (≈ 3.02 µM); against Haemophilus influenzae [8], 0.063 µg/mL (≈ 0.095 µM); with Escherichia coli [9], 0.25 µg/mL (≈ 0.377 µM). The compound also came in with an MIC with Enterobacter cloacae [10] of 4 µg/mL (≈ 6.03 µM).
On to `C[C@H](O/N=C(\C(=O)N[C@@H]1C(=O)N2C(C(=O)[O-])=C(C[n+]3cccc4c3ccn4CCO)CS[C@H]12)c1nc(N)sc1Cl)C(=O)O`, for which the MIC stood at 0.032 µg/mL (≈ 0.0492 µM) in the data set with Haemophilus influenzae [1]; 4 µg/mL (≈ 6.15 µM) against Pseudomonas aeruginosa [2]; 0.016 µg/mL (≈ 0.0246 µM) against Moraxella catarrhalis; 2 µg/mL (≈ 3.08 µM) in the data set with Staphylococcus aureus; 1 µg/mL (≈ 1.54 µM) in the data set with Pseudomonas aeruginosa [3]; 2 µg/mL (≈ 3.08 µM) in the data set with Escherichia coli [4]. For the same compound, the MIC in the data set on Pseudomonas aeruginosa [5] worked out at 8 µg/mL (≈ 12.3 µM); with Pseudomonas aeruginosa [6], 16 µg/mL (≈ 24.6 µM); in the data set on Enterobacter cloacae [7], 0.5 µg/mL (≈ 0.769 µM); against Streptococcus pneumoniae it was 4 µg/mL (≈ 6.15 µM); with Haemophilus influenzae [8], 0.063 µg/mL (≈ 0.0969 µM); in the data set with Escherichia coli [9], 0.25 µg/mL (≈ 0.385 µM). For the same compound, in the data set with Enterobacter cloacae [10], the MIC was found to be 4 µg/mL (≈ 6.15 µM).
In the case of `CNCCCn1ccc2c1ccc[n+]2CC1=C(C(=O)[O-])N2C(=O)[C@@H](NC(=O)/C(=N\O[C@@H](C)C(=O)O)c3nc(N)sc3Cl)[C@H]2SC1`, the MIC with Haemophilus influenzae [1] came out at 0.032 µg/mL (≈ 0.0473 µM); against Pseudomonas aeruginosa [2], 2 µg/mL (≈ 2.95 µM); in the data set on Pseudomonas aeruginosa [11], 8 µg/mL (≈ 11.8 µM); in the data set with Pseudomonas aeruginosa [12], 4 µg/mL (≈ 5.91 µM); against Moraxella catarrhalis it was 0.016 µg/mL (≈ 0.0236 µM); against Staphylococcus aureus it was 2 µg/mL (≈ 2.95 µM). Also, the MIC stood at 1 µg/mL (≈ 1.48 µM) against Pseudomonas aeruginosa [3]; 2 µg/mL (≈ 2.95 µM) in the data set with Escherichia coli [4]; 4 µg/mL (≈ 5.91 µM) in the data set with Pseudomonas aeruginosa [5]; 8 µg/mL (≈ 11.8 µM) with Pseudomonas aeruginosa [6]; 8 µg/mL (≈ 11.8 µM) in the data set on Pseudomonas aeruginosa [14]; 8 µg/mL (≈ 11.8 µM) in the data set with Pseudomonas aeruginosa [15]. For the same compound, the MIC with Pseudomonas aeruginosa [16] is 8 µg/mL (≈ 11.8 µM); in the data set on Pseudomonas aeruginosa [17] it was 8 µg/mL (≈ 11.8 µM); against Enterobacter cloacae [7] it was 0.5 µg/mL (≈ 0.738 µM); with Streptococcus pneumoniae, 4 µg/mL (≈ 5.91 µM); in the data set with Haemophilus influenzae [8] it was 0.063 µg/mL (≈ 0.093 µM); against Escherichia coli [9], 0.5 µg/mL (≈ 0.738 µM). The compound also came in with an MIC in the data set on Enterobacter cloacae [10] of 2 µg/mL (≈ 2.95 µM). For the same compound, the Stability in [13] stood at 78.4%.
On to `CNCCn1ccc2c1ccc[n+]2CC1=C(C(=O)[O-])N2C(=O)[C@@H](NC(=O)/C(=N\O[C@@H](C)C(=O)O)c3nc(N)sc3Cl)[C@H]2SC1`, for which the MIC came out at 0.032 µg/mL (≈ 0.0483 µM) against Haemophilus influenzae [1]; 2 µg/mL (≈ 3.02 µM) against Pseudomonas aeruginosa [2]; 0.032 µg/mL (≈ 0.0483 µM) with Moraxella catarrhalis; 2 µg/mL (≈ 3.02 µM) against Staphylococcus aureus; 1 µg/mL (≈ 1.51 µM) with Pseudomonas aeruginosa [3]; 2 µg/mL (≈ 3.02 µM) with Escherichia coli [4]. For the same compound, the MIC in the data set on Pseudomonas aeruginosa [5] stood at 4 µg/mL (≈ 6.03 µM); in the data set with Pseudomonas aeruginosa [6], 8 µg/mL (≈ 12.1 µM); in the data set on Enterobacter cloacae [7] it was 0.5 µg/mL (≈ 0.754 µM); against Streptococcus pneumoniae, 4 µg/mL (≈ 6.03 µM); against Haemophilus influenzae [8], 0.125 µg/mL (≈ 0.188 µM); with Escherichia coli [9], 0.5 µg/mL (≈ 0.754 µM). For the same compound, the MIC against Enterobacter cloacae [10] amounted to 2 µg/mL (≈ 3.02 µM).
For `CNCCCn1c(N)nc2c1ccc[n+]2CC1=C(C(=O)[O-])N2C(=O)[C@@H](NC(=O)/C(=N\O[C@@H](C)C(=O)O)c3nc(N)sc3Cl)[C@H]2SC1`, the MIC against Haemophilus influenzae [1] was 0.032 µg/mL (≈ 0.0462 µM); in the data set on Pseudomonas aeruginosa [2], 2 µg/mL (≈ 2.89 µM); in the data set with Pseudomonas aeruginosa [11], 4 µg/mL (≈ 5.77 µM); in the data set on Pseudomonas aeruginosa [12] it was 2 µg/mL (≈ 2.89 µM); with Moraxella catarrhalis, 0.016 µg/mL (≈ 0.0231 µM); against Staphylococcus aureus, 2 µg/mL (≈ 2.89 µM). For the same compound, the MIC amounted to 0.5 µg/mL (≈ 0.721 µM) against Pseudomonas aeruginosa [3]; 2 µg/mL (≈ 2.89 µM) with Escherichia coli [4]; 4 µg/mL (≈ 5.77 µM) in the data set on Pseudomonas aeruginosa [5]; 8 µg/mL (≈ 11.5 µM) against Pseudomonas aeruginosa [6]; 4 µg/mL (≈ 5.77 µM) against Pseudomonas aeruginosa [14]; 2 µg/mL (≈ 2.89 µM) with Pseudomonas aeruginosa [15]. For the same compound, the MIC is 4 µg/mL (≈ 5.77 µM) against Pseudomonas aeruginosa [16]; 4 µg/mL (≈ 5.77 µM) with Pseudomonas aeruginosa [17]; 0.5 µg/mL (≈ 0.721 µM) against Enterobacter cloacae [7]; 2 µg/mL (≈ 2.89 µM) with Streptococcus pneumoniae; 0.063 µg/mL (≈ 0.0909 µM) against Haemophilus influenzae [8]; 0.25 µg/mL (≈ 0.361 µM) with Escherichia coli [9]. The MIC with Enterobacter cloacae [10] worked out at 2 µg/mL (≈ 2.89 µM). Moreover, the Stability in data set [13] was found to be 90.2%. Also, the ED50 worked out at 1.33 mg/kg in the data set on Pseudomonas aeruginosa [18] and 4.69 mg/kg in the data set on Pseudomonas aeruginosa [19].
For the compound `C[C@H](O/N=C(\C(=O)N[C@@H]1C(=O)N2C(C(=O)[O-])=C(C[n+]3cccc4c3ccn4CC(=O)O)CS[C@H]12)c1nc(N)sc1Cl)C(=O)O`, the MIC was 0.016 µg/mL (≈ 0.0241 µM) with Haemophilus influenzae [1]; 4 µg/mL (≈ 6.02 µM) in the data set with Pseudomonas aeruginosa [2]; 0.032 µg/mL (≈ 0.0482 µM) with Moraxella catarrhalis; 8 µg/mL (≈ 12 µM) in the data set with Staphylococcus aureus; 2 µg/mL (≈ 3.01 µM) in the data set on Pseudomonas aeruginosa [3]; 4 µg/mL (≈ 6.02 µM) against Escherichia coli [4]. Besides, the MIC is 32 µg/mL (≈ 48.2 µM) in the data set with Pseudomonas aeruginosa [5]; 32 µg/mL (≈ 48.2 µM) against Pseudomonas aeruginosa [6]; 1 µg/mL (≈ 1.51 µM) against Enterobacter cloacae [7]; 4 µg/mL (≈ 6.02 µM) in the data set on Streptococcus pneumoniae; 0.063 µg/mL (≈ 0.0949 µM) with Haemophilus influenzae [8]; 0.5 µg/mL (≈ 0.753 µM) against Escherichia coli [9]. Further, the MIC in the data set with Enterobacter cloacae [10] was found to be 16 µg/mL (≈ 24.1 µM).
